The conditions of data set [1]: in vivo.
Experimental: In Vivo Pharmacokinetic Assessments in Rodents
Oral bioavailability of test compounds was conducted by assessing plasma exposure of following one or two oral doses in mice and, in some cases, comparing said plasma exposure with that following a single intravenous dose of the same compound.
Body weights were recorded on the day of dosing.
Dosing: The formulation containing the test compound were administered p.o. by gavage with disposable feeding needles.
Sample processing/storage: All blood samples were transferred into K2EDTA tubes on wet ice and centrifuged within 5 min (3200×g for 5 min at 4° C.) to obtain plasma. Samples were stored frozen at −80° C. until bioanalysis.
Instrumentation: AB Sciex API 4000 Q-TRAP MS/MS system equipped with an Agilent LC system with a binary pump, a solvent degasser, a thermostatted column compartment, a CTC autosampler and a divert valve installed between the column and mass spectrometer inlet.
The test system of data set [2] is integrin alpha-4-beta-7-expressing T lymphocytes. Nature of the data set: In vivo T lymphocyte trafficking analyses in DSS-treated mice (single dose). Set-up: species or system C57Bl/6 mice. The settings on record: 5-6 h. The procedure:
In Vivo T Lymphocyte Trafficking Analyses
Animals. Female C57131/6 mice (Charles River, St-Constant, Qc), weighting 16-19 g at delivery were used for this study. Following arrival in the animal facility, all animals were subjected to a general health evaluation. An acclimation period of 7-14 days was allowed before the beginning of the study.
Administration of DSS. Dextran sulfate sodium (DSS) was administered to C57Bl/6 mice through addition to their drinking water at 2-3%. Mice accessed the DSS-treated water ad libitum over a 5-day period. Body weight and disease activity index (“DAI”) were measured on Day 5 in order to distribute DSS-treated animals in two uniform groups prior to dosing. Specific symptoms associated with colitis were scored based on the severity of each particular symptoms: 1—blood in stool (negative hemoccult, positive hemoccult, blood traces in stool visible, rectal bleeding); 2—stool consistency (normal, soft but still formed, very soft, diarrhea); 3—posture and fur (normal; ruffled fur; ruffled fur combined to slight hunched posture and slight dehydration; ruffled fur combined to hunched posture, dehydration and altered walking; moribund (euthanasia is mandatory before the animal reach this point). The overall DAI score was the sum of the three parameters (maximum score of 9). DAI assessment was performed on Day 5 only (prior to dosing). […]

Data set [3] relates to DSS-treated mice. Nature of the data set: 8-day efficacy study in DSS model (therapeutic) of ulcerative colitis. Format: in vivo, C57Bl/6 mice. The settings on record: for reduction of DAI score: Day 8 vs DSS+vehicle; for reduction of lesion length: vs control vehicle treated-group. The procedure:
Animals. Female C57Bl/6 mice (Charles River, St-Constant, Qc), weighting 16-19 g at delivery were used for this study. Following arrival in the animal facility, all animals were subjected to a general health evaluation. An acclimation period of 7-14 days was allowed before the beginning of the study.
Oral dosing of the test article and the vehicle. From Day 5 to Day 8, nacellins and the vehicle were administered as a single slow bolus (over approximately 5 seconds) via oral route (p.o.), according to the procedure of administration of solution by gavage: the animal was firmly restrained. A bulb-tipped gastric gavage needle of 22G was passed through the side of the mouth and was advanced towards the oesophagus. The test articles and the vehicle were dosed orally at 5 mL/kg.
Intraperitoneal dosing of the test articles and the vehicle. On day 5, DATK32 antibody was administered in only on Day 5, as a single slow bolus (over approximately 5 seconds) via the i.p. route. […] Intraperitoneal administration was performed accordingly to the following procedure: the mouse was restrained manually and held with the head and body tilted downward. The tip of the needle (27 G) was inserted through the skin and just past the abdominal wall. A short pull back of the plunger of the syringe was done prior to administration of the solution to make sure that the syringe was not inserted in any abdominal organ (fluid would be pulled back into the syringe in this case).
Inflammation Score. Once the mouse was euthanized, the colon was collected and its length was measured. Lesion length was also measured. Colon inflammation was scored based on severity of oedema and ulceration.
Disease Activity Index (DAI) assessment. Body weight and DAI were measured on Day 5 in order to distribute DSS-treated animals in two uniform groups prior dosing. Specific symptoms associated to UC were scored based on the severity of each particular symptoms: 1—blood in stool (negative hemoccult, positive hemoccult, blood traces in stool visible, rectal bleeding); 2—stool consistency (normal, soft but still formed, very soft, diarrhea); 3—posture and fur (normal; ruffled fur; ruffled fur combined to slight hunched posture and slight dehydration; ruffled fur combined to hunched posture, dehydration and altered walking; moribund (euthanasia is mandatory before the animal reach this point). The overall DAI score was the sum of the three parameters (maximum score 9). Body weight measurement and DAI assessment were performed also on Day 8 to evaluate the effect of the treatments.

Data set [4] deals with CD3+CD4+α4β7+ T lymphocytes. Nature of the data set: FACS analysis of T lymphocyte populations, 8-day DSS study. Format: in vivo, C57Bl/6 mice. The conditions noted are these: i.p.: ET02452 65 mg/kg, DATK32 15 mg/kg. An excerpt:
Collection of samples. On Day 8, five hours after ET02451-01, ET02452-01 and vehicle dosing, the animals were euthanized by cardiac puncture under general anesthesia, according to the “Guide to the Care and Use of Experimental Animals” published by the CCAC. Blood was transferred in a Sarstedt tube containing EDTA. Mesenteric and peripheral (inguinal, auxiliary and brachial) lymph nodes were collected and transferred on ice in corresponding tubes containing cold PBS. Nodes were kept on ice until tissue preparation.
Cell population labeling. Blood was withdrawn by cardiac puncture and collected on EDTA-coated tubes. Mensenteric lymph nodes (MLN) and peripheral lymph nodes (PLN) were also collected. Mononuclear cells from the tissues will be isolated using density gradient (Lympholyte) and they were stained with fluorescent antibodies. […] After washes, cells were fixed using BD Fix Solution. Percentage of different subpopulations of T lymphocytes were then analysed using FACSCalibur cytometer. Antibodies employed were the same as listed for the single-dose PD studies above.

Assay in data set [5]: not given
The source holds these as a separate data set.

The nature of data set [6]: Plasma protein binding, equilibrium dialysis, rat plasma. The settings on record: rat plasma dialysis.
Experimental: (§3) An equilibrium dialysis (HTDialysis) method was used employing 50% plasma collected from CD-1 mice or Sprague-Dawley rats and incubated with K2EDTA. Test articles were assessed at 1 microM concentration in three replicates. Incubation time as 5 hours and plasma and buffer standards were assessed using LC/MS/MS. Percentage recovery was calculated as (Cbuffer+Cplasma)/[average]Cinitial, [average]Cinitial being measured in triplicate from the test samples prior to dialysis. Percentage of compound unbound was calculated as Cbuffer/Cplasma.
The target of data set [7] is CYP3A4 (Homo sapiens, UniProt P08684). Nature of the data set: in vitro. The conditions noted are these: microsomes. As for the experimental part: (§1) Cytochrome P450 Inhibition Assay
Chain of CYP3A4 (P08684 whole entry): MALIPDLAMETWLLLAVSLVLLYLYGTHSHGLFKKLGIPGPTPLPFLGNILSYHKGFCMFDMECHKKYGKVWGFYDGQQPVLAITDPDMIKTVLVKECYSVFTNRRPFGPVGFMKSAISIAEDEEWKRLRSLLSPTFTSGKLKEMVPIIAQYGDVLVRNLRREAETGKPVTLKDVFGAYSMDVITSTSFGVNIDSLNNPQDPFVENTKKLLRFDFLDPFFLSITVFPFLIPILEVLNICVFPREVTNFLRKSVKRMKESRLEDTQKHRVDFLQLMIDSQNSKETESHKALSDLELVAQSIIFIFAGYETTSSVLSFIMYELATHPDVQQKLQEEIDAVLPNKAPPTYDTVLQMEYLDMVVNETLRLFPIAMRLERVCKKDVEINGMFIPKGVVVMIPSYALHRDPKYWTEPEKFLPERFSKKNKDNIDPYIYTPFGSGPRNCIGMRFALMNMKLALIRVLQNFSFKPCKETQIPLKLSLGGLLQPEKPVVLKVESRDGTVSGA
(§2) Analyses were performed using standard LC/MS/MS protocols.

Data set [8] has as its target CYP2C9 (Homo sapiens, UniProt P11712). Nature of the data set: in vitro. The conditions noted are these: microsomes. The procedure: as §1, §2
Data set [9] addresses T1, CYP1A2 (Homo sapiens, UniProt P05177).
T1 sequence (P05177 1-516): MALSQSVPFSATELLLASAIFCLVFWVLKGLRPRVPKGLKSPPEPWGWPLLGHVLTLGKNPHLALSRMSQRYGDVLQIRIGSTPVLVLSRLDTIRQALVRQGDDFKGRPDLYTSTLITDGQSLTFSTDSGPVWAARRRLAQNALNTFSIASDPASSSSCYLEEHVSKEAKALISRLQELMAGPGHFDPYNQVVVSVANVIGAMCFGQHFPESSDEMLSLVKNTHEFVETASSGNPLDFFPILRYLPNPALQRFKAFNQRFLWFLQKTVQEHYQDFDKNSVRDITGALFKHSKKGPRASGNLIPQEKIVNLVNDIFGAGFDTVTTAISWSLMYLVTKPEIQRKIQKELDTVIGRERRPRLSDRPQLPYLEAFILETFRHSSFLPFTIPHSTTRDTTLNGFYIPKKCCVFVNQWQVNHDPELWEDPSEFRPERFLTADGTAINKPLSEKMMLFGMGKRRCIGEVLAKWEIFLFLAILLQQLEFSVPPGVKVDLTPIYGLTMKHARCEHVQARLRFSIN
Kind of data set: in vitro. The settings on record: microsomes. The procedure:
as §1, §2

The target in data set [10] is CYP2D6 (Homo sapiens, UniProt P10635). Kind of data set: in vitro. The settings on record: microsomes. The procedure: as §1, §2
Chain of CYP2D6 (P10635 whole entry): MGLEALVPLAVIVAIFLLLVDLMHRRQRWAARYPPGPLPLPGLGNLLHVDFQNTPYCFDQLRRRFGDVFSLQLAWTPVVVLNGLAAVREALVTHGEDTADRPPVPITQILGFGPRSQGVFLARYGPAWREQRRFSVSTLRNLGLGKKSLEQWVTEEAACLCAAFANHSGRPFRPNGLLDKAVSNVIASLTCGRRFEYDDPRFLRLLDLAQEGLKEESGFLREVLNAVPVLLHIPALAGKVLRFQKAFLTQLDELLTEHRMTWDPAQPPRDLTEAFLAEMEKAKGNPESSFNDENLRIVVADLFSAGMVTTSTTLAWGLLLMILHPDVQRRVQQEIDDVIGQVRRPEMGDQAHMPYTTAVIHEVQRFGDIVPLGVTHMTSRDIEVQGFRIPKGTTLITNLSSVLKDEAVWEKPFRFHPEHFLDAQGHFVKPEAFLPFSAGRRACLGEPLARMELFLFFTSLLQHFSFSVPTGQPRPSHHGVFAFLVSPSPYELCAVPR
A short description of data set [11]: Plasma protein binding, equilibrium dialysis, mouse plasma. Background: Equilibrium dialysis compares concentrations on both sides of a semipermeable membrane.
Experimental: as §3

The values below come from US11072616B2, “Cyclic peptides targeting alpha-4-beta-7 integrin” (Zealand Pharma A/S, priority 2015, dated 2021).

Chain of CYP2C9 (P11712 whole entry): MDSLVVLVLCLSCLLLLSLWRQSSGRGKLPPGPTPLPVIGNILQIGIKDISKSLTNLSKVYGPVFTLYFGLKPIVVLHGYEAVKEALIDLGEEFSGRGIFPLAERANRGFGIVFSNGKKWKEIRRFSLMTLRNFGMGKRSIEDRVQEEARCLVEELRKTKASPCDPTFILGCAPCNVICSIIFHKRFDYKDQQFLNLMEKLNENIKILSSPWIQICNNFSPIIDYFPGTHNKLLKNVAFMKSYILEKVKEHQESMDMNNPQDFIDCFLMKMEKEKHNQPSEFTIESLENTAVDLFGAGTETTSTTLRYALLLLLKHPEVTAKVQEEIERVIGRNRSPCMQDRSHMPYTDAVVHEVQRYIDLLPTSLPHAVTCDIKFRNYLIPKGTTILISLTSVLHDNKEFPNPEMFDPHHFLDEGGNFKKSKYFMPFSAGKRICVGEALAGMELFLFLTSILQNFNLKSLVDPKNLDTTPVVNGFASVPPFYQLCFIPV

On to `CC(C)C[C@@H]1NC(=O)CN(C)C(=O)[C@H](Cc2ccc(O)cc2)NC(=O)[C@@H]2CCCN2[C@H](C(=O)NC(C)(C)C)[C@H](C)NC(=O)[C@H]([C@@H](C)O)NC(=O)[C@H](CC(=O)O)NC1=O` [ET2154], for which, in data set [1] (mouse, po), the “oral bioavailability / absorption (in words)” value is listed as “low oral bioavailability”. For the same compound, the “homing of T lymphocytes to the MLN” value in [2] (200 mg/kg single oral dose) was “significant and robust attenuation of homing to the MLN”.
In the case of `CC(C)C[C@@H]1NC(=O)c2ccc(-c3ccnc4ccccc34)c(c2)CNC(=O)[C@@H]2CCCN2[C@H](C(=O)NC(C)(C)C)[C@H](C)NC(=O)[C@H]([C@@H](C)O)NC(=O)[C@H](CC(=O)O)NC1=O` [ET02452], the “reduction of DAI score” value was 46% in [3] (i.p.: ET02452-01 65 mg/kg Day 5-8, DATK32 15 mg/kg Day 5) and “did not have any beneficial effect” in data set [3] (oral 40 mg/kg, Day 5 to Day 8). In addition, the “reduction of lesion length” value in [3] (i.p.: ET02452-01 65 mg/kg, DATK32 15 mg/kg Day 5) was found to be 20%; in data set [3] (oral 40 mg/kg) it was 53%. For the same compound, the “CD3+CD4+α4β7+ cell population in mesenteric lymph nodes” value in data set [4] is on record as “significant decrease”. In addition, the “oral bioavailability / absorption (in words)” value in data set [1] (mouse, po) was “low oral bioavailability”.
With `CC(C)C[C@@H]1NC(=O)[C@H](Cc2ccc(-c3ccccc3)cc2)NC(=O)[C@@H]2CCCN2[C@H](C(=O)NC(C)(C)C)[C@H](C)NC(=O)[C@H]([C@@H](C)O)NC(=O)[C@H](CC(=O)O)NC1=O` [ET01813], the “% unbound (Cbuffer/Cplasma) Mouse plasma 1” value is reported as 24.7%, the “% unbound (Cbuffer/Cplasma) Mouse plasma 2” value is listed as 22.2%, the “% unbound (Cbuffer/Cplasma) Mouse plasma 3” value was 18.8% and the “% unbound (Cbuffer/Cplasma) Mouse plasma Average” value is recorded as 21.9%. Further, in data set [5], the “% unbound (Cbuffer/Cplasma) Rat plasma 1” value turned out to be 15.8%, the “% unbound (Cbuffer/Cplasma) Rat plasma 2” value is 20.1%, the “% unbound (Cbuffer/Cplasma) Rat plasma 3” value is 21.7% and the “% unbound (Cbuffer/Cplasma) Rat plasma Average” value is on record as 19.2%. Besides, in data set [6], the “% recovery” value stood at 89%. This compound also displayed a CLs in [1] (male, CD-1, mouse, iv, 5 mg/kg) of 114.8 mL/min/kg. Also, in data set [1] (mouse), the calculated oral bioavailability was roughly 1% and the terminal half-life is roughly 2 h. Also, in data set [1] (mouse, po, 40 mg/kg), the tmax is 5 min. Also, the IC50 (in general, the concentration at which inhibition is half-maximal) in [7] is greater than 15 µM. Moreover, the IC50 in data set [8] was greater than 15 µM. Moreover, the IC50 in data set [9] was greater than 15 µM. In data set [10], this compound had an IC50 greater than 15 µM. Also, in data set [11], the “Control buffer/Buffer at 0.1 uM Cdonor/Creceiver” value was found to be 94%.
For `CC(C)C[C@@H]1NC(=O)[C@H](Cc2ccccc2)NC(=O)[C@@H]2CCCN2[C@H](C(=O)NC(C)(C)C)[C@H](C)NC(=O)[C@H]([C@@H](C)O)NC(=O)[C@H](CC(=O)O)NC1=O` [ET01792], the “% unbound (Cbuffer/Cplasma) Mouse plasma 1” value was determined as 64.8%, the “% unbound (Cbuffer/Cplasma) Mouse plasma 2” value is 52.9%, the “% unbound (Cbuffer/Cplasma) Mouse plasma 3” value stood at 67.9% and the “% unbound (Cbuffer/Cplasma) Mouse plasma Average” value turned out to be 61.9%. Besides, in data set [5], the “% unbound (Cbuffer/Cplasma) Rat plasma 1” value worked out at 82.9%, the “% unbound (Cbuffer/Cplasma) Rat plasma 2” value is on record as 77.3%, the “% unbound (Cbuffer/Cplasma) Rat plasma 3” value is listed as 79.5% and the “% unbound (Cbuffer/Cplasma) Rat plasma Average” value is 79.9%. Also, the “% recovery” value in [6] is reported as 97%. The “oral bioavailability / absorption (in words)” value in data set [1] (mouse, po) was “high oral bioavailability”. Besides, the “exposure (AUC0-tlast)” value in data set [1] (mouse, po, 40 mg/kg) was 589 ng·h/mL. Moreover, the “maximum plasma concentration after the first dose” value in data set [1] (mouse, po, 48 mg/kg) was ~1,600 ng/ml. For the same compound, the “homing of T lymphocytes to the MLN” value in [2] (100 mg/kg single oral dose) is listed as “significant reduction of homing to the MLN”. The compound also returned an IC50 in data set [7] greater than 15 µM. Moreover, the IC50 in [8] was greater than 15 µM. For the same compound, in data set [9], the IC50 was greater than 15 µM. In [10], the IC50 is greater than 15 µM. Also, the “Control buffer/Buffer at 0.1 uM Cdonor/Creceiver” value in data set [11] worked out at 80%. Moreover, in [11] (mouse plasma dialysis), the “% recovery” value worked out at 130%.
